Test results: ChEMBL document CHEMBL2429821, “A Casein kinase 1/Checkpoint kinase 1 pyrazolo-pyridine protein kinase inhibitor as novel activator of the p53 pathway” (Bioorg Med Chem Lett, 2013); call rule not given here
pIC50: −log10 of the molar value.

What was measured:
[1] = biological target: T1, Protein kinase C zeta type (Homo sapiens) (UniProt Q05513); test: Inhibition of human PKCzeta assessed as residual activity at 1 uM relative to control
T1 sequence (whole entry): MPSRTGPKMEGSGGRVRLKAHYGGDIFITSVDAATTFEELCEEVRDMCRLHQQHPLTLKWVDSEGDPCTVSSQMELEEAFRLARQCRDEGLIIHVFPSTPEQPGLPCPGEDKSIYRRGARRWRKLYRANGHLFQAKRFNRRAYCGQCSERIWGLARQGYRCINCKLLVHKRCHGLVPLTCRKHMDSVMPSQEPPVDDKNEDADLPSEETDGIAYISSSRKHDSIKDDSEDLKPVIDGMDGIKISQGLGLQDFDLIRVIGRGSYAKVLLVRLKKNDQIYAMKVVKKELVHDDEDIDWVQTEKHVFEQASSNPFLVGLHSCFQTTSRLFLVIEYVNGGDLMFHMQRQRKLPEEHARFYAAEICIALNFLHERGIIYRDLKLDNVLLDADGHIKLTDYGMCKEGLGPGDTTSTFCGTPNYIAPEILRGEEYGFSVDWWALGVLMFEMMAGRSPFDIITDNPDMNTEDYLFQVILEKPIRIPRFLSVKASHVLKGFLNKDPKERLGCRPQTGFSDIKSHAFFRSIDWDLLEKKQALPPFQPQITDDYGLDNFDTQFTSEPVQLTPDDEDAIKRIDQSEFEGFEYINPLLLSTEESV

[2] = biological target: Serine/threonine-protein kinase PAK 4 (Homo sapiens) (UniProt O96013); test: Inhibition of human PAK4 assessed as residual activity at 1 uM relative to control
Sequence of Serine/threonine-protein kinase PAK 4 (Homo sapiens) (O96013 whole entry, looked up): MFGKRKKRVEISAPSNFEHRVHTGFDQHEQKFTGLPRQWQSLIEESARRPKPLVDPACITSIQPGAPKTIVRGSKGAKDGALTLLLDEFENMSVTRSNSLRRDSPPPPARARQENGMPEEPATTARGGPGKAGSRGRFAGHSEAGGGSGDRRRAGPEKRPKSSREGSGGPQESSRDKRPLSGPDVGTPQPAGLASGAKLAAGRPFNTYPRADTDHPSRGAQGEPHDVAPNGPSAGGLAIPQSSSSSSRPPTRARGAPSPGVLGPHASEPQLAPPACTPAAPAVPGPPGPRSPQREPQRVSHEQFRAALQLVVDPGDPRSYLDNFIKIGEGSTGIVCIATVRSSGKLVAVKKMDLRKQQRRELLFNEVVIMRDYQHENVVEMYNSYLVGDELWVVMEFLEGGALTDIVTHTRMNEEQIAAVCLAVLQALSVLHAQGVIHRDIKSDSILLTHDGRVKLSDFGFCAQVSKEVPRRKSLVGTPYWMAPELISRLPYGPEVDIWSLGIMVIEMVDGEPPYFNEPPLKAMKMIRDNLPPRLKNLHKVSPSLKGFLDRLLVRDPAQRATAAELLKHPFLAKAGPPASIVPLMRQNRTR

[3] = biological target: Aurora kinase B (Homo sapiens) (UniProt Q96GD4); test: Inhibition of human Aurora-B assessed as residual activity at 10 uM relative to control
Sequence of Aurora kinase B (Homo sapiens) (Q96GD4 whole entry): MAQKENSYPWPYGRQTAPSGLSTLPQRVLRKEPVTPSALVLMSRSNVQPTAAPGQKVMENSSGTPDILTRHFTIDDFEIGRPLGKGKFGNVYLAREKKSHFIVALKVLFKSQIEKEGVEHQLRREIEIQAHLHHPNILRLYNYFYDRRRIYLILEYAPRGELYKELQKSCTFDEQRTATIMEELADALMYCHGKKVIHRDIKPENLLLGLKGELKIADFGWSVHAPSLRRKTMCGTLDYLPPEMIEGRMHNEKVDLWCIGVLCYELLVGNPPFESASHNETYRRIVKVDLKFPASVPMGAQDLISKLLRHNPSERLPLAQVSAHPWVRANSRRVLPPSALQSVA

A-375 [4] = test: Cell cycle arrest in human A375 cells assessed as accumulation at S phase at 80 uM after 48 hrs by FACS flow cytometric analysis (reference value: 25.1%); type: functional
A-375 [5] = test: Cell cycle arrest in human A375 cells assessed as accumulation at sub-G1 phase at 80 uM after 48 hrs by FACS flow cytometric analysis (reference value: 2.17%); type: functional
A-375 [6] = test: Cell cycle arrest in human A375 cells assessed as accumulation at G0-G1 phase at 80 uM after 48 hrs by FACS flow cytometric analysis (reference value: 55.4%); type: functional
[7] = biological target: Casein kinase I isoform delta (Rattus norvegicus, UniProt Q06486); test: Inhibition of rat CK1delta in presence of 20 uM ATP
Sequence of Casein kinase I isoform delta (Q06486 whole entry, canonical isoform): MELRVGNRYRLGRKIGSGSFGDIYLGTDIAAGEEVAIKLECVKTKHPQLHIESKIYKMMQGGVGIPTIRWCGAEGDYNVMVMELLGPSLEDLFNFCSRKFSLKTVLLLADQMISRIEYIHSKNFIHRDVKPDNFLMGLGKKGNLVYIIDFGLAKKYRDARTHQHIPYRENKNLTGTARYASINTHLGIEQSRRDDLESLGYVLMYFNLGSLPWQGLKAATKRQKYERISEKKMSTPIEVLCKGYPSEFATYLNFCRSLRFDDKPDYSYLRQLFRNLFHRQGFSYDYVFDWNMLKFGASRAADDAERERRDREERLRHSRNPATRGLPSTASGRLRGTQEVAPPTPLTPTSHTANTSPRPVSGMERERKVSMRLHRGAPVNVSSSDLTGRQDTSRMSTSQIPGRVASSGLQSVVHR

[8] = biological target: T2, Serine/threonine-protein kinase Chk1 (Homo sapiens, UniProt O14757); test: Inhibition of human CHK1 in presence of 20 uM ATP
T2 sequence (O14757 whole entry): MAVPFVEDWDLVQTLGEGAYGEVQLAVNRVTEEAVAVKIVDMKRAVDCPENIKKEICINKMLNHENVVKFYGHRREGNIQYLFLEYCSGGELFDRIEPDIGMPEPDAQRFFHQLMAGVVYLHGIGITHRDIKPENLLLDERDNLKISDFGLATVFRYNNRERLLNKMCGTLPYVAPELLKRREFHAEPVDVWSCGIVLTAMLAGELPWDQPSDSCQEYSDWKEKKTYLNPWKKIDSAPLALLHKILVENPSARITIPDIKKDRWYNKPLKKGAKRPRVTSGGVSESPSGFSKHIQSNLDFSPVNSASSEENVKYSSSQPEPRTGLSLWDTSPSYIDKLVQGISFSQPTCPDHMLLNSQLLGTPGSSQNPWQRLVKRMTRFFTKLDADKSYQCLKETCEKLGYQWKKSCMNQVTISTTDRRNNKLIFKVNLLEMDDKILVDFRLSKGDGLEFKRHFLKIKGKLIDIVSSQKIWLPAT

[9] = biological target: T3, Mitogen-activated protein kinase 12 (Homo sapiens) (UniProt P53778); test: Inhibition of human p38gamma MAPK assessed as residual activity at 1 uM relative to control
T3 sequence (whole entry): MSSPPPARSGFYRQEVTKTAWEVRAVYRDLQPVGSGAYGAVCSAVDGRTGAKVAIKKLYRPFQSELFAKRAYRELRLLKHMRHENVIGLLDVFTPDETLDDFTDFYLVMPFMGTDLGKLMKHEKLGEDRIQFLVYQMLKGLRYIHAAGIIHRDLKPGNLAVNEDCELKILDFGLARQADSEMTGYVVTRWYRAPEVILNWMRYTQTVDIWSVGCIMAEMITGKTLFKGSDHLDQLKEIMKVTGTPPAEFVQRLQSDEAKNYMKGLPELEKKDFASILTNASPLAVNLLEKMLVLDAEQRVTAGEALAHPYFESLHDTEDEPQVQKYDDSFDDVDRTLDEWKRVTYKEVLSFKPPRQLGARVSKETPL

[10] = biological target: Serine/threonine-protein kinase pim-2 (Homo sapiens) (UniProt Q9P1W9); test: Inhibition of human PIM2 assessed as residual activity at 1 uM relative to control
Sequence of Serine/threonine-protein kinase pim-2 (Homo sapiens) (Q9P1W9 whole entry, looked up): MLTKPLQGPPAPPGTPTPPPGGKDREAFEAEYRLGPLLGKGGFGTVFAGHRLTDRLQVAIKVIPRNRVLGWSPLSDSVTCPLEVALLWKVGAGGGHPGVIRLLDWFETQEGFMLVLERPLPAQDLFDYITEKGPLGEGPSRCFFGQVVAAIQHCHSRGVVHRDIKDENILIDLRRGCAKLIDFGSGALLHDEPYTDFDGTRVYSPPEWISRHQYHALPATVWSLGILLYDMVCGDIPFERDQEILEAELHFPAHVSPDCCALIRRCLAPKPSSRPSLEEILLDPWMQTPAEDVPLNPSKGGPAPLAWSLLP

[11] = biological target: MAP kinase-activated protein kinase 2 (Homo sapiens) (UniProt P49137); test: Inhibition of human MAPKAPK2 assessed as residual activity at 1 uM relative to control
Sequence of MAP kinase-activated protein kinase 2 (Homo sapiens) (P49137 whole entry, looked up): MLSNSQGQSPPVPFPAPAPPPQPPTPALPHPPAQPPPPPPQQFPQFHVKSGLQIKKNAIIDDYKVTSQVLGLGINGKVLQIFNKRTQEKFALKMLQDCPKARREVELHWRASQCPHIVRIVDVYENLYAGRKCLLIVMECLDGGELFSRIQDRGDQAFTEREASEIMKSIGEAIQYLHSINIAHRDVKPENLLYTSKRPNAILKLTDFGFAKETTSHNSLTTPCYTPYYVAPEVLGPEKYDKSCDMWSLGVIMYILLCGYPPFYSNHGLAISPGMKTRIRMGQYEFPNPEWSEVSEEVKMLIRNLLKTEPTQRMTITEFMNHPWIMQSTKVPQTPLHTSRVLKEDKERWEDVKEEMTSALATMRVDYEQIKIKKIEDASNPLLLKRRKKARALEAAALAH

[12] = biological target: T3, Mitogen-activated protein kinase 12 (Homo sapiens); test: Inhibition of human p38gamma MAPK assessed as residual activity at 10 uM relative to control
[13] = biological target: Serine/threonine-protein kinase pim-2 (Homo sapiens) (UniProt Q9P1W9); test: Inhibition of human PIM2 assessed as residual activity at 10 uM relative to control
[14] = biological target: Mitogen-activated protein kinase 1 (Homo sapiens) (UniProt P28482); test: Inhibition of human MAPK2 assessed as residual activity at 10 uM relative to control
Sequence of Mitogen-activated protein kinase 1 (Homo sapiens) (P28482 whole entry): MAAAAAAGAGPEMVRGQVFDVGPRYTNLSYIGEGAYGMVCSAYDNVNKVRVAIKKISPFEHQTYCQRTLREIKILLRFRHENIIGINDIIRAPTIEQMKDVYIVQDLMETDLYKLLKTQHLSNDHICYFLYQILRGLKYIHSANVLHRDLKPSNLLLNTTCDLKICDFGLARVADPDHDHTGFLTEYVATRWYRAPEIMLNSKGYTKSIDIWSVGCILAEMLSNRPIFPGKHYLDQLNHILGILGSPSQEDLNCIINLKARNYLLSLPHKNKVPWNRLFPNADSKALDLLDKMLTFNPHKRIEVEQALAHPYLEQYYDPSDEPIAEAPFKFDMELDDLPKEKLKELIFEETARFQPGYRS

Homo sapiens = species on record: Homo sapiens; test: Inhibition of human VEGFR assessed as residual activity at 1 uM relative to control
[15] = biological target: T4, Mitogen-activated protein kinase 15 (Homo sapiens) (UniProt Q8TD08); test: Inhibition of human ERK8 assessed as residual activity at 1 uM relative to control
T4 sequence (whole entry): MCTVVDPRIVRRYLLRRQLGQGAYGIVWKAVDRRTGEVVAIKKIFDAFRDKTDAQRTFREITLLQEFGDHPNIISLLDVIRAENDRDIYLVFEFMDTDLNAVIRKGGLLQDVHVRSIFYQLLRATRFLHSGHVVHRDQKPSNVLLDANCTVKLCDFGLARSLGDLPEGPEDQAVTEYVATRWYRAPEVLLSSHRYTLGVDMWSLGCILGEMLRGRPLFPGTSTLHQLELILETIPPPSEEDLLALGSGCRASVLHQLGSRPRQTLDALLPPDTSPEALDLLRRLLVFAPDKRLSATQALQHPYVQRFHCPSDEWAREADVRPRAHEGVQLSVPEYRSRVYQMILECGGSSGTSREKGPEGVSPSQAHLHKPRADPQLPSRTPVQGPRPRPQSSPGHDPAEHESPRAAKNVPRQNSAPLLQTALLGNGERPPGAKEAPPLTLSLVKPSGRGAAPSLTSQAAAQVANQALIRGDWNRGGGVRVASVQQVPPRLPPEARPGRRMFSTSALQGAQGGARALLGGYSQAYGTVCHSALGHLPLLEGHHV

[16] = biological target: T4, Mitogen-activated protein kinase 15 (Homo sapiens); test: Inhibition of human ERK8 assessed as residual activity at 10 uM relative to control

| Activity [1] [%] | Activity [2] [%] | Activity [3] [%] | pIC50 [7] | IC50 [8] | Activity [9] [%] | Activity [10] [%] | Activity [11] [%] | Activity [12] [%] | Activity [13] [%] | Activity [14] [%] | Activity (Homo sapiens) [%] | pIC50 ([8]; read-out: IC50) | Compound | Activity (A-375 [4]) [%] | Activity (A-375 [5]) [%] | Activity (A-375 [6]) [%] | Activity [15] [%] | Activity [16] [%] |
| --- | --- | --- | --- | --- | --- | --- | --- | --- | --- | --- | --- | --- | --- | --- | --- | --- | --- | --- |
| 84 | 89 | 71 | – | – | – | – | – | – | – | – | – | – | CCCC(=O)Nc1n[nH]c2ncc(-c3cccnc3)cc12 | – | – | – | – | – |
| 93.7 | 115 | 93 | 6.08 | Not Active | 97.1 | 119 | 94.7 | 93 | 103 | 93 | 79.5 | – | CC(=O)Nc1nccc(-c2c(-c3ccccc3)noc2C)n1 | 21.9 | 3.32 | 58.5 | 91.1 | 89.5 |
| 120 | 71.2 | 85.1 | 6.05 | – | 117 | 79 | 63.8 | 95.6 | 58.7 | 82.7 | 54.5 | 6.63 | CC(=O)Nc1cccc(-c2cnc3[nH]nc(C)c3c2)c1 | 11.6 | 45.7 | 5.36 | 45.3 | 15.8 |
